# Laboratory results published in PubChem BioAssay (NCI).
#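 Cells were grown in 96-well plates and exposed to each compound for 48 hours at five concentrations; endpoints were interpolated linearly between bracketing concentrations, or set to the highest concentration if not reached. At the TGI there is no net growth.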
# Columns and labels:
# Test in all cases: NCI anticancer screen, dose series, 48 h
# MOLT-4 leukemia = system: MOLT-4 leukemia
# COLO 205 colon = system: COLO 205 colon
# MALME-3M melanoma = system: MALME-3M melanoma
# SR leukemia = system: SR leukemia
# HT29 colon = system: HT29 colon
# SF-295 CNS = system: SF-295 CNS
# SNB-78 CNS = system: SNB-78 CNS
# SF-539 CNS = system: SF-539 CNS
# CCRF-CEM leukemia = system: CCRF-CEM leukemia
# HOP-92 NSCLC = system: HOP-92 NSCLC
# LXFL 529 NSCLC = system: LXFL 529 NSCLC
# IGROV1 ovarian = system: IGROV1 ovarian
# SNB-75 CNS = system: SNB-75 CNS
# OVCAR-4 ovarian = system: OVCAR-4 ovarian
# NCI-H23 lung = system: NCI-H23 lung
# A498 renal = system: A498 renal
# SK-MEL-28 melanoma = system: SK-MEL-28 melanoma
# CAKI-1 renal = system: CAKI-1 renal
# HL-60(TB) leukemia = system: HL-60(TB) leukemia
# SK-MEL-5 melanoma = system: SK-MEL-5 melanoma
# NCI-H460 lung = system: NCI-H460 lung
# ACHN renal = system: ACHN renal
# SNB-19 CNS = system: SNB-19 CNS
# 786-0 renal = system: 786-0 renal
# KM20L2 colon = system: KM20L2 colon
# A549 NSCLC = system: A549 NSCLC
# K-562 leukemia = system: K-562 leukemia
# SN12C renal = system: SN12C renal
# OVCAR-8 ovarian = system: OVCAR-8 ovarian
# RXF-631 renal = system: RXF-631 renal
# UACC-62 melanoma = system: UACC-62 melanoma
# RXF 393 renal = system: RXF 393 renal
# M19-MEL melanoma = system: M19-MEL melanoma
# DLD-1 colon = system: DLD-1 colon
# UO-31 renal = system: UO-31 renal
# HCT-15 colon = system: HCT-15 colon
# EKVX NSCLC = system: EKVX NSCLC
# OVCAR-5 ovarian = system: OVCAR-5 ovarian
# TK-10 renal = system: TK-10 renal
# RPMI-8226 leukemia = system: RPMI-8226 leukemia
# LOX IMVI melanoma = system: LOX IMVI melanoma
# M14 melanoma = system: M14 melanoma
# OVCAR-3 ovarian = system: OVCAR-3 ovarian
# SF-268 CNS = system: SF-268 CNS
# SW-620 colon = system: SW-620 colon
# NCI-H522 lung = system: NCI-H522 lung
# NCI-H226 lung = system: NCI-H226 lung
# HOP-18 NSCLC = system: HOP-18 NSCLC
# SK-OV-3 ovarian = system: SK-OV-3 ovarian
# KM12 colon = system: KM12 colon
# U251 CNS = system: U251 CNS
# UACC-257 melanoma = system: UACC-257 melanoma
# HCC-2998 colon = system: HCC-2998 colon
# HOP-62 NSCLC = system: HOP-62 NSCLC
# HCT-116 colon = system: HCT-116 colon
# BT-549 breast = system: BT-549 breast
# SK-MEL-2 melanoma = system: SK-MEL-2 melanoma
# MDA-N = system: MDA-N
# DU-145 prostate = system: DU-145 prostate
# MDA-MB-435 = system: MDA-MB-435
# DMS 114 small cell lung = system: DMS 114 small cell lung
# PC-3 prostate = system: PC-3 prostate
# NCI/ADR-RES ovarian = system: NCI/ADR-RES ovarian
# HS 578T breast = system: HS 578T breast
# XF 498 CNS = system: XF 498 CNS
# MCF7 breast = system: MCF7 breast
# T-47D breast = system: T-47D breast
# MDA-MB-231 breast = system: MDA-MB-231 breast
smiles,measurement,setting,value
CCOC(=O)C1=NC(c2ccccc2)(c2ccccc2)OC1=C(Cl)Cl,TGI,MOLT-4 leukemia,> 100 µM
same,TGI,COLO 205 colon,> 100 µM
same,TGI,MALME-3M melanoma,> 100 µM
same,TGI,SR leukemia,> 100 µM
same,TGI,HT29 colon,> 100 µM
same,TGI,SF-295 CNS,> 100 µM
same,TGI,SNB-78 CNS,> 100 µM
same,TGI,SF-539 CNS,> 100 µM
same,TGI,CCRF-CEM leukemia,> 100 µM
same,TGI,HOP-92 NSCLC,> 100 µM
same,TGI,LXFL 529 NSCLC,> 100 µM
same,TGI,IGROV1 ovarian,> 100 µM
same,TGI,SNB-75 CNS,> 100 µM
same,TGI,OVCAR-4 ovarian,> 100 µM
same,TGI,NCI-H23 lung,> 100 µM
same,TGI,A498 renal,> 100 µM
same,TGI,SK-MEL-28 melanoma,> 100 µM
same,TGI,CAKI-1 renal,> 100 µM
same,TGI,HL-60(TB) leukemia,34.8 µM
same,TGI,SK-MEL-5 melanoma,> 100 µM
same,TGI,NCI-H460 lung,> 100 µM
same,TGI,ACHN renal,> 100 µM
same,TGI,SNB-19 CNS,> 100 µM
same,TGI,786-0 renal,> 100 µM
same,TGI,KM20L2 colon,> 100 µM
same,TGI,A549 NSCLC,> 100 µM
same,TGI,K-562 leukemia,> 100 µM
same,TGI,SN12C renal,> 100 µM
same,TGI,OVCAR-8 ovarian,> 100 µM
same,TGI,RXF-631 renal,> 100 µM
same,TGI,UACC-62 melanoma,> 100 µM
same,TGI,RXF 393 renal,12.5 µM
same,TGI,M19-MEL melanoma,> 100 µM
same,TGI,DLD-1 colon,> 100 µM
same,TGI,UO-31 renal,> 100 µM
same,TGI,HCT-15 colon,> 100 µM
same,TGI,EKVX NSCLC,> 100 µM
same,TGI,OVCAR-5 ovarian,> 100 µM
same,TGI,TK-10 renal,> 100 µM
same,TGI,RPMI-8226 leukemia,> 100 µM
same,TGI,LOX IMVI melanoma,> 100 µM
same,TGI,M14 melanoma,> 100 µM
same,TGI,OVCAR-3 ovarian,> 100 µM
same,TGI,SF-268 CNS,> 100 µM
same,TGI,SW-620 colon,> 100 µM
same,TGI,NCI-H522 lung,> 100 µM
same,TGI,NCI-H226 lung,> 100 µM
same,TGI,HOP-18 NSCLC,> 100 µM
same,TGI,SK-OV-3 ovarian,> 100 µM
same,TGI,KM12 colon,> 100 µM
same,TGI,U251 CNS,> 100 µM
same,TGI,UACC-257 melanoma,> 100 µM
same,TGI,HCC-2998 colon,57.4 µM
same,TGI,HOP-62 NSCLC,> 100 µM
same,TGI,HCT-116 colon,> 100 µM
CC1c2ccccc2Cn2cc3c(c21)C(=O)c1cccc(OP(=O)(O)OCc2ccccc2)c1C3=O (stereo not given),TGI,MOLT-4 leukemia,> 100 µM
same,TGI,COLO 205 colon,> 100 µM
same,TGI,MALME-3M melanoma,> 100 µM
same,TGI,BT-549 breast,> 100 µM
same,TGI,SR leukemia,> 100 µM
same,TGI,SK-MEL-2 melanoma,> 100 µM
same,TGI,MDA-N,> 100 µM
same,TGI,HT29 colon,> 100 µM
same,TGI,SF-295 CNS,> 100 µM
same,TGI,DU-145 prostate,> 100 µM
same,TGI,SF-539 CNS,> 100 µM
same,TGI,MDA-MB-435,> 100 µM
same,TGI,CCRF-CEM leukemia,> 100 µM
same,TGI,DMS 114 small cell lung,> 100 µM
same,TGI,HOP-92 NSCLC,> 100 µM
same,TGI,LXFL 529 NSCLC,> 100 µM
same,TGI,IGROV1 ovarian,> 100 µM
same,TGI,SNB-75 CNS,> 100 µM
same,TGI,OVCAR-4 ovarian,> 100 µM
same,TGI,NCI-H23 lung,> 100 µM
same,TGI,A498 renal,> 100 µM
same,TGI,SK-MEL-28 melanoma,> 100 µM
same,TGI,CAKI-1 renal,> 100 µM
same,TGI,HL-60(TB) leukemia,> 77.3 µM
same,TGI,SK-MEL-5 melanoma,> 100 µM
same,TGI,NCI-H460 lung,> 100 µM
same,TGI,ACHN renal,> 100 µM
same,TGI,SNB-19 CNS,> 100 µM
same,TGI,PC-3 prostate,> 100 µM
same,TGI,786-0 renal,> 100 µM
same,TGI,KM20L2 colon,> 100 µM
same,TGI,A549 NSCLC,> 100 µM
same,TGI,K-562 leukemia,> 100 µM
same,TGI,SN12C renal,> 100 µM
same,TGI,NCI/ADR-RES ovarian,> 100 µM
same,TGI,OVCAR-8 ovarian,> 100 µM
same,TGI,RXF-631 renal,> 100 µM
same,TGI,UACC-62 melanoma,> 100 µM
same,TGI,RXF 393 renal,> 100 µM
same,TGI,HS 578T breast,> 100 µM
same,TGI,DLD-1 colon,> 100 µM
same,TGI,UO-31 renal,> 100 µM
same,TGI,HCT-15 colon,> 100 µM
same,TGI,XF 498 CNS,> 100 µM
same,TGI,MCF7 breast,> 100 µM
same,TGI,EKVX NSCLC,> 100 µM
same,TGI,OVCAR-5 ovarian,> 100 µM
same,TGI,T-47D breast,> 100 µM
same,TGI,TK-10 renal,> 100 µM
same,TGI,RPMI-8226 leukemia,> 100 µM
same,TGI,LOX IMVI melanoma,> 100 µM
same,TGI,M14 melanoma,> 100 µM
same,TGI,OVCAR-3 ovarian,> 100 µM
same,TGI,SF-268 CNS,> 100 µM
same,TGI,SW-620 colon,> 100 µM
same,TGI,NCI-H522 lung,> 100 µM
same,TGI,NCI-H226 lung,> 100 µM
same,TGI,SK-OV-3 ovarian,> 100 µM
same,TGI,KM12 colon,> 100 µM
same,TGI,U251 CNS,> 100 µM
same,TGI,UACC-257 melanoma,> 100 µM
same,TGI,HCC-2998 colon,> 100 µM
same,TGI,MDA-MB-231 breast,> 100 µM
same,TGI,HOP-62 NSCLC,> 100 µM
same,TGI,HCT-116 colon,> 100 µM
